Experimental data as given in BindingDB's records for patent US11104664 (Yangtze River Pharmaceutical Group Co., 2021).
pIC50: −log10 of the molar value.

Molecular target: Histone-lysine N-methyltransferase EZH2 [Y641F] (Homo sapiens, UniProt Q15910, Y641F)
Experiment: In Vitro Methyltransferase Activity Assay
Method: Recombinant PRC2 (EZH2-Y641F) was purchased from Active motif, S-adenosyl-methionine (SAM) and Poly-L-lysine (PLL) were purchased from Sigma-Aldrich, and H3(1-50)K27me1 peptide was purchased from Cisbio. LANCEUltrasystem (Perkinelmer) was used for detection system. In the enzyme activity test, compounds to be tested were diluted by 8 gradient points in a ratio of 1:3, and added into each well in a reaction plate, and 100 ng recombinase was added, followed by a buffer [20 mM Tris pH8.5, 2 mM MgCl2, 0.01% Tween-20, 1 mM TCEP] containing 2.5 uM SAM/250 nM H3 (1-50)K27me1 premixtures. Enzymatic reaction thus began at room temperature. After reacted for 3 hours, a detection solution premixed with PLL, detection antibody and Ulight was added, and reacted for 1 hour at room temperature. The fluorescence value was then read on a Tecan infinite pro. IC50 was calculated by fitting in a four-factor model in the XLfit software.

Sequence of Histone-lysine N-methyltransferase EZH2 [Y641F] (Q15910 whole entry Y641F): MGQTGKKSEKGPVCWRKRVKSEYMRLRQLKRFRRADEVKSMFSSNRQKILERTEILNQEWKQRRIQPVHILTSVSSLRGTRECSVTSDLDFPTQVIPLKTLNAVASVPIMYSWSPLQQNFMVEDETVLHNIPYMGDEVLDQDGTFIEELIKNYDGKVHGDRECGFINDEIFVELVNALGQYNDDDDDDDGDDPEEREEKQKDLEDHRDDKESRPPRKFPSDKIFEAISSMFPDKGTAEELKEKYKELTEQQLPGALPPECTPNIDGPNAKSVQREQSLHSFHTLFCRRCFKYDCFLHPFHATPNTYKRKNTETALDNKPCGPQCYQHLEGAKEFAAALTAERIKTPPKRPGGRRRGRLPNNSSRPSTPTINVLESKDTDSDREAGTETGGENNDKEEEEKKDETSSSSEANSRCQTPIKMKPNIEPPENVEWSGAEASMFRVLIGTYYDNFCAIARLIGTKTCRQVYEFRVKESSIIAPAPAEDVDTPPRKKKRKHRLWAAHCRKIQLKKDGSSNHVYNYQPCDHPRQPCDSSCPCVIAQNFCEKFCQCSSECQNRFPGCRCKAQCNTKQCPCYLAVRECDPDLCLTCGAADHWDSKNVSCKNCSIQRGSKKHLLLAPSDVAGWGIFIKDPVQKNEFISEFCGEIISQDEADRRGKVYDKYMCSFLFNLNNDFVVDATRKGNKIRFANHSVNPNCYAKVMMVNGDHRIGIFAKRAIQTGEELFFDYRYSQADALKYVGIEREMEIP

- pIC50: 7.92
Compound: CCN(c1c(C)c(C(=O)NCc2c(C)cc(C)[nH]c2=O)cc2c1cnn2C)C1CCOCC1 [US11104664, Compound P-7]
